# Experimental data reported in ChEMBL document CHEMBL1201862, “PubChem BioAssay data set” (2004).
# Calls of active or inactive are those of the source.
# How the values were obtained:
# HeLa = test: ATP-based viability loss in HeLa cells – cell-based, CellTiter-Glo luminescence, cherry-pick samples, cytotoxicity control for MITF activator project, dose response (AID 540259); format: functional; conditions: Homo sapiens
# Escherichia coli = test: microbe, parasite or virus in culture
# [1] = molecular target: T1, Nucleotide-binding oligomerization domain-containing protein 1 (Homo sapiens, UniProt Q9Y239); test: blockers of NOD1 pathway activity – revised, SAR follow-up (AID 2333); format: functional
# T1 sequence (Q9Y239 whole entry): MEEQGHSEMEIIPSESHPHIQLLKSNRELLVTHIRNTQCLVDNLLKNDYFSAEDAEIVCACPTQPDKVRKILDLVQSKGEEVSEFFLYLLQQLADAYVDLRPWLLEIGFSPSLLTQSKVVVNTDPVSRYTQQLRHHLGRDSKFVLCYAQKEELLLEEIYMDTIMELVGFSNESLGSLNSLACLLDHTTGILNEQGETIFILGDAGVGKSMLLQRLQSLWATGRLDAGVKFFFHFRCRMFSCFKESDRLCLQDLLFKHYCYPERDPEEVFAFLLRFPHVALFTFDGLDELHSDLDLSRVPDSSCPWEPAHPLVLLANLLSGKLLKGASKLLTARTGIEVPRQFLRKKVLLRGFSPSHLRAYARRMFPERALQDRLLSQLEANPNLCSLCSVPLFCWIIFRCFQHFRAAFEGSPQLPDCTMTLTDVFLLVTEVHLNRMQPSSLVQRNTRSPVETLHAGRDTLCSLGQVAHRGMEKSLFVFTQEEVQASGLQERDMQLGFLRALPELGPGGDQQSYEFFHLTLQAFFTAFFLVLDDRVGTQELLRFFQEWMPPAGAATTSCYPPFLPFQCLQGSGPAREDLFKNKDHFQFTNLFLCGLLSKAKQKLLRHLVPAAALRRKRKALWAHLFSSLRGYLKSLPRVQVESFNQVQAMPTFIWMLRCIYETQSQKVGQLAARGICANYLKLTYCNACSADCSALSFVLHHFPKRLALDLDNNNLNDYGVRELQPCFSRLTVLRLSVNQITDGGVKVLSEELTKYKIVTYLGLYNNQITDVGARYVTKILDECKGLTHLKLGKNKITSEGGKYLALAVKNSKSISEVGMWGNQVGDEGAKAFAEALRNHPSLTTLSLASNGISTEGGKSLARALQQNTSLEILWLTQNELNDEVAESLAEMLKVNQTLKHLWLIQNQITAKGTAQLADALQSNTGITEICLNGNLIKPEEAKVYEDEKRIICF
# Tumor necrosis factor = Tumor necrosis factor (Homo sapiens, UniProt P01375); test: analog potency on TNFa NF-kB signaling – cell-based, revised, SAR follow-up (AID 2337); format: functional
# HEK293 = test: cells; conditions: Homo sapiens;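 note: cells exposed to compound for 14 hours overnight before viability readout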
# INS1 = test: INS-1E survival protection against cytokine death – cell-based, luminescence, retest, dose response (AID 449756); format: functional; conditions: Rattus norvegicus;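 note: cell death triggered by IL-1 beta plus TNF-alpha plus IFN-gamma mixture; protective hits raise ATP signal compared with cytokine alone wells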
# [2] = molecular target: T2, Ubiquitin-conjugating enzyme E2 N (Homo sapiens, UniProt P61088); format: functional
# T2 sequence (P61088 whole entry): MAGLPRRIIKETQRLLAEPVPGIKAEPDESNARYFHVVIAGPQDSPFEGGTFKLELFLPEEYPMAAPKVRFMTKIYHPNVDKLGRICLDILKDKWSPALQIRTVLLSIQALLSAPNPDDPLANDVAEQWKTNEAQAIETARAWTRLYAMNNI
# [3] = HEK-293T cell viability reduction – luminescence, B-cell screen hits, cytotoxicity control for BCR NF-kB inhibitor project, dose response (AID 489021); format: functional, cell-based;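 note: HEK-293T cells carrying an NF-kB luciferase reporter; cells exposed to compound for about 14 hours before viability readout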
# Bcl-2-related protein A1 = molecular target: T3, Bcl-2-related protein A1 (Mus musculus, UniProt Q07440); format: functional;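 note: confirmatory dose–response counterscreen on Bfl-1, used to check hits from a UBC13 polyubiquitin inhibitor campaign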
# T3 sequence (Q07440 whole entry): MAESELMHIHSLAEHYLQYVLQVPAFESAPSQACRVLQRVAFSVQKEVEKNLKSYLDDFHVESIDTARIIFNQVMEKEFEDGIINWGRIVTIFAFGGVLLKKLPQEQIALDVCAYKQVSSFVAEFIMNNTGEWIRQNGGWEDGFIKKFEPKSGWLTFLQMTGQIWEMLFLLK
# [4] = molecular target: T4, Microphthalmia-associated transcription factor (Homo sapiens, UniProt O75030); test: reducers of TRPM1 reporter luminescence, concentration series – cell-based, SK-MEL-5, cherry-picked, set 3, MITF inhibitor project, dose response (AID 493073); format: functional;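 note: SK-MEL-5 melanoma cells with luciferase driven by the MITF target TRPM1 promoter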
# T4 sequence (O75030 whole entry): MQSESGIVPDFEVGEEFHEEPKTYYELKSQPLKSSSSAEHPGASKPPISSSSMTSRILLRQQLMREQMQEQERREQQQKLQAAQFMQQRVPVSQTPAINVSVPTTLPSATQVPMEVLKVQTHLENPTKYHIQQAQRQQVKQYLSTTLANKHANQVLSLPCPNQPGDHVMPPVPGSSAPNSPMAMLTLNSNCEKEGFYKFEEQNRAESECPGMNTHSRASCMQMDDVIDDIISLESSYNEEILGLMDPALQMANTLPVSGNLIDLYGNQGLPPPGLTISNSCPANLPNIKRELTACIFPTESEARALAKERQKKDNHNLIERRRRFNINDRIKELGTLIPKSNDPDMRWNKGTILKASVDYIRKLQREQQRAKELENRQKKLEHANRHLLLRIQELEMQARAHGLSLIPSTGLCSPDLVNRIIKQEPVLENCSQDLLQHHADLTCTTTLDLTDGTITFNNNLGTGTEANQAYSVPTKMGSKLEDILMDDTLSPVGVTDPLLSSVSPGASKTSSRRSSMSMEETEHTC
# A-375 = test: proliferation inhibition in MITF-low A375 cells – cell-based, cherry-pick samples, set 2, counter-screen for MITF modulator project, dose response (AID 540335); format: functional; conditions: Homo sapiens
# [5] = molecular target: T2, Ubiquitin-conjugating enzyme E2 N; format: functional; remark: listed apart in the source
# [6] = Trypanosoma cruzi growth suppression in host cells – NIH3T3 host cells, beta-gal luminescence, confirmation (AID 2044); format: functional, cell-based;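 note: intracellular parasites grown in NIH/3T3 mouse fibroblasts as host cells; luminescent beta-galactosidase reporter signal from transgenic T. cruzi replicating inside host cells; inhibitors lower the luminescence signal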
# [7] = NIH3T3 cell viability loss – ATP luminescence, mouse fibroblasts, counter-screen, dose response (AID 2010); format: functional, cell-based;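 note: cells exposed to compound for about 90 hours before reading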
# [8] = molecular target: T5, Sentrin-specific protease 8 (Homo sapiens, UniProt Q96LD8); format: functional;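 note: luminescence read-out of SENP8 inhibition, dose-response confirmation following an ultra-high-throughput screen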
# T5 sequence (Q96LD8 whole entry): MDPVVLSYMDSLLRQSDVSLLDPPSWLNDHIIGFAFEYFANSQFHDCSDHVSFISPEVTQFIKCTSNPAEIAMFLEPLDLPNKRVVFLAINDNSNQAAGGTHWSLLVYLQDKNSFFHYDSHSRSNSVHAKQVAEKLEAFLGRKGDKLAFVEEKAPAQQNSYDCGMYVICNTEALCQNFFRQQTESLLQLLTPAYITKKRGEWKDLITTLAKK
# [9] = molecular target: T6, Sentrin-specific protease 7 (Homo sapiens, UniProt Q9BQF6); format: functional;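 note: Luminescence-based dose-response confirmation of ultra-high-throughput screening hits, measuring inhibition of SENP7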
# T6 sequence (Q9BQF6 whole entry): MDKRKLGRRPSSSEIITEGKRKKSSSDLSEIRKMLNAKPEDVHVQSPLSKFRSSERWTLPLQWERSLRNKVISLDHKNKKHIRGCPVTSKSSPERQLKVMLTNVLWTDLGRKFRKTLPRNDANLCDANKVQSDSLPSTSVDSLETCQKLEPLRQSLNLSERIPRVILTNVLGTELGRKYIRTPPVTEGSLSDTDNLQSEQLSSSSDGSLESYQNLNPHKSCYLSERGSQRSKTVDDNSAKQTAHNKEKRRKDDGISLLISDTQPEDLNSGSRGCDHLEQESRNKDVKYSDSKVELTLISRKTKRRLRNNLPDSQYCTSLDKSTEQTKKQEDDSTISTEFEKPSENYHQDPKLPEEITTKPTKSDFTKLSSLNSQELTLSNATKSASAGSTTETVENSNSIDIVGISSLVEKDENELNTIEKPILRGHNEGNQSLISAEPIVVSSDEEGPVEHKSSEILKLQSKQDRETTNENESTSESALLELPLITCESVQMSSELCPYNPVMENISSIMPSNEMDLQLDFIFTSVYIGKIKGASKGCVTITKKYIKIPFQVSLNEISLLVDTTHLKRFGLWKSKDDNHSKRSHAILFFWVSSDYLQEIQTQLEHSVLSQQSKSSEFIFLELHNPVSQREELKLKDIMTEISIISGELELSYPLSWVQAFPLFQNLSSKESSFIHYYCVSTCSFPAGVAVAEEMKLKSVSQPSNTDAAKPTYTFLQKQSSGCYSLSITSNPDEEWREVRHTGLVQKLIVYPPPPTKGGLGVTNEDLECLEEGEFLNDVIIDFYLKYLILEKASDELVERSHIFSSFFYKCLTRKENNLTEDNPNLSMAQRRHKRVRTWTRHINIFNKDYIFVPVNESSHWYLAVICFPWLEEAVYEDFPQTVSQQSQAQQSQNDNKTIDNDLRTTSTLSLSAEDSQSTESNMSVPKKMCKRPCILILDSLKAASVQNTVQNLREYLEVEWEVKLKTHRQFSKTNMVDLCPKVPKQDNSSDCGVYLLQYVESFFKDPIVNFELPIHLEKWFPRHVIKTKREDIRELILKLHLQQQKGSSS
# [10] = molecular target: T7, Sentrin-specific protease 6 (Homo sapiens, UniProt Q9GZR1); format: functional;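 note: Luminescence-based dose-response confirmatory assay of SENP6 inhibition, following up an ultra-high-throughput screen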
# T7 sequence (Q9GZR1 whole entry): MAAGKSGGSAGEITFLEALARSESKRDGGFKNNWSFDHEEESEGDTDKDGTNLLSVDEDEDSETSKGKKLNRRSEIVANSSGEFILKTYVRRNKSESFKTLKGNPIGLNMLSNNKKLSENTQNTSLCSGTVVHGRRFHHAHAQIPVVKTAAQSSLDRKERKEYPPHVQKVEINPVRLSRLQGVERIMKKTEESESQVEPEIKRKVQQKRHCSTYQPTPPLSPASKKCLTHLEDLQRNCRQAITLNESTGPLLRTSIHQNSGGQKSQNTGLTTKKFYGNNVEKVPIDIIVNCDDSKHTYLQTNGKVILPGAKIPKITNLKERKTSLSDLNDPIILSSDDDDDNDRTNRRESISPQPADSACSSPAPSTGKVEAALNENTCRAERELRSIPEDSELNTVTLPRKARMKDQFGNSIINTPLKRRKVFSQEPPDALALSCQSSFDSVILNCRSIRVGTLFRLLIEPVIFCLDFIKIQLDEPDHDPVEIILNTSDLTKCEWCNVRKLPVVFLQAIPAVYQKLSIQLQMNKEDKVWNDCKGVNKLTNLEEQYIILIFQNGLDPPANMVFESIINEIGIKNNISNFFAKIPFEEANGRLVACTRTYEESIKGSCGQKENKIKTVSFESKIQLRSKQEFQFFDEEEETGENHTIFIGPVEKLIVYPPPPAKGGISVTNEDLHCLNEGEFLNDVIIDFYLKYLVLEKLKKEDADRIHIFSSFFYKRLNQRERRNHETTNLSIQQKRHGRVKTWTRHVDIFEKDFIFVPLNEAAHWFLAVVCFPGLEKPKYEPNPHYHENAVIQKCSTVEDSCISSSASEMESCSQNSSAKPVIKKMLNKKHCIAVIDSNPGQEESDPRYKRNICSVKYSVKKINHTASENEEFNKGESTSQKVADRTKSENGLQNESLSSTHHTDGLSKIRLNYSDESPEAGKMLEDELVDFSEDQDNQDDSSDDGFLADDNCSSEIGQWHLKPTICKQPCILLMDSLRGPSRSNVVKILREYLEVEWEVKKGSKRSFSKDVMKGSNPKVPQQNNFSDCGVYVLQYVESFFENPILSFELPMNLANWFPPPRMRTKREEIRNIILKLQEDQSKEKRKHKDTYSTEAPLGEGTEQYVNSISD
# Caspase-3 = molecular target: T8, Caspase-3 (Homo sapiens, UniProt P42574); format: functional;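 note: Dose-response selectivity test against caspase-3 for candidate inhibitors of sentrin-specific proteases (SENPs)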
# T8 sequence (P42574 whole entry): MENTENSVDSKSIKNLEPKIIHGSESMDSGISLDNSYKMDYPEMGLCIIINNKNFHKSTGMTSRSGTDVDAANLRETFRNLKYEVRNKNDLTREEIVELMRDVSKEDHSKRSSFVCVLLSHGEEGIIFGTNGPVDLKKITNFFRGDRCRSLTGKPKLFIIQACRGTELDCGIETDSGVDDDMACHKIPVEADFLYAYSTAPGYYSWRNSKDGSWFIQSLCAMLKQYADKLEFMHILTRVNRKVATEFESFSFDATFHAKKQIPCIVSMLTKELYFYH
# [11] = molecular target: T9, Type-1 angiotensin II receptor (Homo sapiens, UniProt P30556); test: antagonism of angiotensin II type 1 receptor – cell-based, uHTS hits, selectivity assay for APJ receptor antagonist project, dose response (AID 463214); format: functional;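 note: antagonist potency against angiotensin II stimulated AT1 response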
# T9 sequence (P30556 whole entry): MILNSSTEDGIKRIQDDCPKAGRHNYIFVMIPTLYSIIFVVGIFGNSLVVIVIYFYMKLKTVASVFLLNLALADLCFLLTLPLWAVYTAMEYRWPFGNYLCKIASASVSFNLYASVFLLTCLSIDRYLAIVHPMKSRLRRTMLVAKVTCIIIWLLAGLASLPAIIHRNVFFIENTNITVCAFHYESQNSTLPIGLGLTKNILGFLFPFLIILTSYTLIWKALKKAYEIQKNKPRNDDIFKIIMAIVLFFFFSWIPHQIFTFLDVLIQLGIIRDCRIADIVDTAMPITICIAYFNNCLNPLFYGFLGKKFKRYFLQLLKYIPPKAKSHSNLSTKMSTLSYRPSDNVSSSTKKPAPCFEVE
# Beta-galactosidase = Beta-galactosidase (Escherichia coli, UniProt Q8VNN2); test: PubChem AID 485352; format: functional
# Sequence of Beta-galactosidase (Q8VNN2 whole entry): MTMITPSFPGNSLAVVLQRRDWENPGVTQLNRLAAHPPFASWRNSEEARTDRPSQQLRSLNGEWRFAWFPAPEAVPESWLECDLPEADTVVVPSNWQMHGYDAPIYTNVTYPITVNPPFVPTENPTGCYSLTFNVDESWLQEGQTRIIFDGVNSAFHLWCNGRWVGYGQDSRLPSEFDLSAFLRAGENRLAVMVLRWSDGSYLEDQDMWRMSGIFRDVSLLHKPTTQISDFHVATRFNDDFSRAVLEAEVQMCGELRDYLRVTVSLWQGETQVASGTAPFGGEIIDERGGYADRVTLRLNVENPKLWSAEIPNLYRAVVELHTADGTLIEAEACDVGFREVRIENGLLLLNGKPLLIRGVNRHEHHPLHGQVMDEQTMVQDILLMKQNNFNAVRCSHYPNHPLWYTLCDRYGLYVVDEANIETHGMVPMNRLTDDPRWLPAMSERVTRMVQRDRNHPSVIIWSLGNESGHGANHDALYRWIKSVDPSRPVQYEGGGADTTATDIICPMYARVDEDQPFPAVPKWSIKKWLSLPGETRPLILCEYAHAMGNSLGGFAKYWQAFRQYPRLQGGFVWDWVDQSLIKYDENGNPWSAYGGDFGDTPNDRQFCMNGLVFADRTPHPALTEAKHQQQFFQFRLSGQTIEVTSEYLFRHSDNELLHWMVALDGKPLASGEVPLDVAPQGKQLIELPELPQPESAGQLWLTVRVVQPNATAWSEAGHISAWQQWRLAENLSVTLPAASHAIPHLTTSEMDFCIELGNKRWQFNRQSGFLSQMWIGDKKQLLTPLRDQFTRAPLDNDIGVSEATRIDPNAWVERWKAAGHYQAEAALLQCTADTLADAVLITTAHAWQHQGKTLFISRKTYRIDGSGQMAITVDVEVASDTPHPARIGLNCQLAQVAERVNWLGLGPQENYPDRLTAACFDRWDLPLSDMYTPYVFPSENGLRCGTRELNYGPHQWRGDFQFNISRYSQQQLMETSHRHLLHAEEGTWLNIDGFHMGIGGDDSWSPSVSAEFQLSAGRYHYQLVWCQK
# Sequence of Tumor necrosis factor (P01375 whole entry): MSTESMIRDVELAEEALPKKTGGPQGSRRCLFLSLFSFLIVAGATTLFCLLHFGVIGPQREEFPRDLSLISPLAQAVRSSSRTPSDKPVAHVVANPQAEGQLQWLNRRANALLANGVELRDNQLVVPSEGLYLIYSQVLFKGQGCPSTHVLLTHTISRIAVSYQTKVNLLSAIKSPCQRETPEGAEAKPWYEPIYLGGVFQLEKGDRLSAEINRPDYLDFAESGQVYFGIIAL
structure (smiles),measurement,setting,value
COC(=O)Cn1c(C)nc2c(sc3nc(C)cc(C)c32)c1=O,AC50,HeLa,> 350 µM (inactive)
CCOc1ccc(NC(=O)CNC(=O)Cc2ccccc2)cc1,AC50,Escherichia coli,25 µM (active)
COc1ccc2oc(C[S+]([O-])c3ccccc3)c(C(=O)O)c2c1 (configuration not stated),IC50,[1],> 20 µM (inactive)
same,IC50,Tumor necrosis factor,> 20 µM (inactive)
same,IC50,HEK293,> 20 µM (inactive)
CCOC(=O)C1(c2nc(N)cs2)COC(=O)C1 (configuration not stated),AC50,Escherichia coli,24.9 µM (active)
CCC(C)(C)c1ccc(OCCCC[n+]2ccccc2)c(C(C)(C)CC)c1,AC50,INS1,2 µM (active)
same,IC50,[2],16.9 µM (active)
same,IC50,[3],59.7 µM (inactive)
same,IC50,Bcl-2-related protein A1,> 20 µM (inactive)
same,AC50,[4],4.35 µM (active)
same,AC50,A-375,22.9 µM (active)
same,IC50,[5],17.3 µM (active)
same,EC50,[6],0.357 µM (active)
same,EC50,[7],19.7 µM (active)
Fc1ccccc1CSc1nnc(-c2ccccc2)o1,IC50,[8],53 µM (active)
same,AC50,HeLa,74 µM (active)
same,IC50,[9],12 µM (active)
same,IC50,[10],36.1 µM (active)
same,IC50,Caspase-3,32 µM (active)
NNc1nc(-c2ccccc2)cc(-c2ccc(Br)cc2)n1,IC50,[11],2.09 µM (active)
same,EC50,Beta-galactosidase,> 40 µM (inactive)
